In patent US20250230156A1, “CRYSTAL FORM OF ALLYL-CONTAINING METHYLPYRIDOPYRIMIDINE COMPOUND” (MEDSHINE DISCOVERY INC., priority 2022, published 2025):

Columns and labels:
KRAS (G12C) and SOS1 = molecular target: T1, KRAS (G12C) and SOS1 (Homo sapiens, UniProt Q07889); experiment: KRAS (G12C) and SOS1 binding experiment (HTRF); settings: SOS1 exchange domain (564-1049), 25° C. for 60 min, read-out: KRAS (G12C) and SOS1 binding inhibitory activity IC50
T1 sequence (Q07889 564-1049): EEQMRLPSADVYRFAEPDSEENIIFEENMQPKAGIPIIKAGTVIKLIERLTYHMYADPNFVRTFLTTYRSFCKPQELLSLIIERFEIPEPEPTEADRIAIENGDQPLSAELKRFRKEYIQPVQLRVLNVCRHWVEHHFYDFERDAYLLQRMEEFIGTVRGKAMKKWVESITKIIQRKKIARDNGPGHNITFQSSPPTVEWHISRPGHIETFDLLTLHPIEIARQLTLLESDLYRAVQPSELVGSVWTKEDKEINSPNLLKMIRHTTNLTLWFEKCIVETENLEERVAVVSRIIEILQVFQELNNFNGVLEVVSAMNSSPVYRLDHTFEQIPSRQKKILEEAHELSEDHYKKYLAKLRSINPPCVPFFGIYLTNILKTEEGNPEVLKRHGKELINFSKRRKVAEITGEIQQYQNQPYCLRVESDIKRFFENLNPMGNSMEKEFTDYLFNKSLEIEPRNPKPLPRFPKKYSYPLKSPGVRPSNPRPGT
Procedure: The multi-functional microplate reader Nivo5 was purchased from PerkinElmer.
Preparation method: 4-hydroxyethylpiperazine ethyl sulfonate (Hepes): 5 mM; sodium chloride (NaCl): 150 mM; ethylenediaminetetraacetic acid (EDTA): 10 mM, CO-630 (Igepal): 0.0025%, potassium fluoride (KF): 100 mM; dithiothreitol (DTT): 1 mM; and bovine serum albumin (BSA): 0.05%.
1) The test compound was diluted five-fold using DMSO with a multi-channel pipette until the 8th concentration was achieved, starting from 1 mM and ending at 0.064 μM.
2) The various gradients of the test compound were diluted with 1 buffer to form working solutions containing 2% DMSO. 5 μL of each working solution was then dispensed into the corresponding wells, with a concentration gradient ranging from 20 μM to 0.00128 nM. Duplicate well experiment was set up for each concentration. Following this, the plate was centrifuged at 1000 rpm for 1 min.
3) A mixed working solution containing KRAS (G12C) at a concentration of 200 nM and Mab Anti GST-Eu cryptate at a concentration of […] was prepared using 1× buffer. […]
4) A mixed working solution containing SOS1 at a concentration of 80 nM and Mab Anti 6HIS-XL665 at a concentration of […] was prepared using 1× buffer. […] After the reaction was completed, the HTRF was read using a multi-label analyzer. […]

[1] = tested on: p-ERK in DLD-1 cells (KRAS G13D mutation); experiment: pERK expression levels in DLD-1 cells using HTRF; type: cell-based; settings: Homo sapiens, 1.5 h compound incubation, read-out: Inhibitory activity against p-ERK in DLD-1 cells IC50
Procedure: The phosphorylation level of ERK protein in DLD-1 cells with KRAS G13D mutation was detected by the Homogeneous Time-Resolved Fluorescence (HTRF) method, and the IC50 and IC90 values of compounds are employed as indicators to evaluate the inhibitory activity of these compounds towards ERK phosphorylation within the RAS signaling pathway.
1) DLD-1 cells (50,000 cells/well) were seeded into a 96-well plate, and each well was filled with 90 μL of RPMI-1640 medium (10% fetal bovine serum), and then placed in a 37° C., 5% carbon dioxide incubator for overnight culture.
10 μL of DMSO-cell culture medium mixture were added to the solvent control and positive control, with a final DMSO concentration of 0.25%. The 96-well cell plate was then returned to the incubator for 1.5 h of culture.
4) The cell supernatant was removed, and 50 μL of 1× lysis buffer was immediately added, followed by shaking and incubation at room temperature for 30 min.
5) A pipette was used to blow and mix the solution evenly, and 16 μL of cell lysate was transferred from the 96-well plate to the HTRF 384-well detection plate.
6) 4 μL of pre-mixed antibody solution were added, the plate was sealed, and incubated at 4° C. The fluorescence emission intensities at 665 nm and 620 nm were detected using an HTRF plate reader. […]

H358 cells = experiment: Anti-cell proliferation experiment of H358 cell 3D model (soft agar); type: cell-based; settings: Homo sapiens, 336 h; NCI-H358, soft agar, 14 days co-incubation, Almar blue; read-out: Anti-proliferation inhibitory activity in H358 cell 3D model IC50
Procedure: RPMI1640 medium, fetal bovine serum, and penicillin/streptomycin antibiotics were purchased from Wisent, and low-melting agarose was purchased from Sigma. Almar blue reagent was purchased from Invitrogen. NCI-H358 cell line was purchased from Nanjing CoBioer Co., Ltd. Nivo multi-label analyzer (PerkinElmer).
H358 cells were seeded into a 96-well U-shaped plate. First, low-melting agarose was prepared into a 2% stock solution. Before use, the agarose stock solution was heated in a microwave oven to completely melt it, and then placed in a 42° C. water bath to keep the agarose in a liquid state. The gel was added to the serum-containing medium to prepare a gel with a concentration of 0.6% as the bottom layer gel, which was then dispensed into the 96-well U-shaped plate at 50 μL per well. After the bottom layer gel solidifies, 2% gel was added to the cell-containing medium to prepare a cell-containing top layer gel with a gel concentration of 0.4%. The cell density was […], and 75 μL was added to each well of the 96-well U-shaped plate with the bottom layer gel, resulting in a cell density of 3000 cells per well. […]
On the day of compound addition, 85 μL of liquid medium is added to the 96-well U-shaped plate with pre-seeded cells. […] The readings were taken using a multi-label analyzer. […]

**Q.** What does the source list for `C=C[C@@H](Nc1nc(C)nc2cc(=O)n(C3(C(F)F)CC3)cc12)c1cccc(C(F)F)c1F` [Compounds as shown in formula (I)]?
**A.** IC50 (KRAS (G12C) and SOS1): 13 nM; IC50 [1]: 37 nM; IC50 (H358 cells): 91 nM
